The values below come from ChEMBL document CHEMBL1130203, “Novel fluoroquinolone antibacterial agents containing oxime-substituted (aminomethyl)pyrrolidines: synthesis and antibacterial activity of 7-(4-(aminomethyl)-3-(methoxyimino)pyrrolidin-1-yl)-1-cyclopropyl-6- fluoro-4-oxo-1,4-dihydro[1,8]naphthyridine-3-carboxylic acid (LB20304)” (J Med Chem, 1997).

≈ marks a conversion by molar mass, not a printed value.

Type in all cases: functional
The subject of assay [1] is Staphylococcus aureus. Description: Minimum inhibitory concentration (MIC) against Staphylococcus aureus giorgio.
Assay [2] relates to Enterococcus faecalis. Description: Minimum inhibitory concentration (MIC) against Streptococcus faecalis 29212. Particulars: Enterococcus faecalis; read-out: MIC.
For assay [3], the system named is Klebsiella aerogenes. Nature of the assay: Minimum inhibitory concentration (MIC) against Klebsiella aerogenes 1082E. Particulars: Klebsiella aerogenes; read-out: MIC.
Assay [4] deals with Enterobacter cloacae. Description: Minimum inhibitory concentration (MIC) against Enterobacter cloacae P99.
The subject of assay [5] is Staphylococcus epidermidis. Nature of the assay: Minimum inhibitory concentration (MIC) against Staphylococcus epidermidis 887E.
For assay [6], the system named is Escherichia coli. Description: Minimum inhibitory concentration (MIC) against Escherichia coli 10536.
Assay [7] deals with Staphylococcus aureus. Nature of the assay: Minimum inhibitory concentration (MIC) against Staphylococcus aureus 6538p.
The subject of assay [8] is Escherichia coli. Nature of the assay: Minimum inhibitory concentration (MIC) against Escherichia coli TEM9 2639E. Particulars: Escherichia coli; read-out: MIC.
The test system of assay [9] is Acinetobacter calcoaceticus. Nature of the assay: Minimum inhibitory concentration (MIC) against Acinetobacter calcoaceticus 15473. The settings on record: Acinetobacter calcoaceticus; read-out: MIC.
The subject of assay [10] is Pseudomonas aeruginosa. Description: Minimum inhibitory concentration (MIC) against Pseudomonas aeruginosa 1912E. Particulars: Pseudomonas aeruginosa; read-out: MIC.
For assay [11], the system named is Staphylococcus epidermidis. Nature of the assay: Minimum inhibitory concentration (MIC) against Staphylococcus epidermidis 178. Particulars: Staphylococcus epidermidis; read-out: MIC.
Assay [12] relates to Bacillus subtilis. Description: Minimum inhibitory concentration (MIC) against Bacillus subtilis ATCC 6633.
The test system of assay [13] is Staphylococcus aureus. Description: Minimum inhibitory concentration (MIC) against Staphylococcus aureus 241. Particulars: Staphylococcus aureus; read-out: MIC.
Assay [14] has as its system Escherichia coli. Description: Minimum inhibitory concentration (MIC) against Escherichia coli 3190Y.
Assay [15] concerns Acinetobacter calcoaceticus. Description: Minimum inhibitory concentration (MIC) against Acinetobacter calcoaceticus 5473.

Usually MIC stands for the lowest concentration that inhibits growth of the organism. With `CCn1cc(C(=O)O)c(=O)c2cc(F)c(N3C/C(=N\OC)C(CN)C3)c(F)c21` (stereo not drawn), the minimum inhibitory concentration (MIC) was found to be 0.063 µg/mL (≈ 0.16 µM) in assay [1]; 0.25 µg/mL (≈ 0.634 µM) in assay [2]; 0.5 µg/mL (≈ 1.27 µM) in assay [3]; 0.13 µg/mL (≈ 0.33 µM) in assay [4]; 0.063 µg/mL (≈ 0.16 µM) in assay [5]; 0.063 µg/mL (≈ 0.16 µM) in assay [6]. Besides, the minimum inhibitory concentration (MIC) in assay [7] is 0.031 µg/mL (≈ 0.0786 µM); in [8], 0.5 µg/mL (≈ 1.27 µM); in [9], 1 µg/mL (≈ 2.54 µM); in [10], 2 µg/mL (≈ 5.07 µM); in assay [11], 4 µg/mL (≈ 10.1 µM); in [12], 0.031 µg/mL (≈ 0.0786 µM). The MIC in assay [13] stood at 4 µg/mL (≈ 10.1 µM); in assay [14] it was 0.063 µg/mL (≈ 0.16 µM).

`CC(C)(C)O/N=C1\CN(c2nc3c(cc2F)c(=O)c(C(=O)O)cn3C2CC2)CC1CN` (stereo not drawn): the MIC in assay [1] is < 0.008 µg/mL; in assay [2], 0.063 µg/mL (≈ 0.146 µM); in assay [3], 0.25 µg/mL (≈ 0.579 µM); in assay [4] it was ≤ 0.008 µg/mL; in assay [5], < 0.008 µg/mL; in assay [6] it was ≤ 0.008 µg/mL. Moreover, the minimum inhibitory concentration (MIC) in assay [7] is 0.008 µg/mL (≈ 0.0185 µM); in assay [8] it was 0.063 µg/mL (≈ 0.146 µM); in assay [9] it was 0.031 µg/mL (≈ 0.0718 µM); in [10] it was 2 µg/mL (≈ 4.64 µM); in assay [11], 1 µg/mL (≈ 2.32 µM); in [12] it was < 0.008 µg/mL. Further, the results for the MIC in assay [13] and in assay [14] were 1 µg/mL (≈ 2.32 µM) and 0.016 µg/mL (≈ 0.0371 µM), respectively.

Regarding `CO/N=C1\CN(c2nc3c(cc2F)c(=O)c(C(=O)O)cn3C2CC2)CC1CN` (stereo in doubt) [GEMIFLOXACIN], the minimum inhibitory concentration (MIC) in assay [1] is < 0.008 µg/mL; in assay [2] it was 0.063 µg/mL (≈ 0.162 µM); in assay [3], 0.031 µg/mL (≈ 0.0796 µM); in assay [4], < 0.008 µg/mL; in assay [5], < 0.008 µg/mL; in assay [6] it was < 0.008 µg/mL. Also, the MIC in [7] was < 0.008 µg/mL; in [8], 0.031 µg/mL (≈ 0.0796 µM); in [9], 0.063 µg/mL (≈ 0.162 µM); in assay [10] it was 0.25 µg/mL (≈ 0.642 µM); in assay [11], 4 µg/mL (≈ 10.3 µM); in assay [12], < 0.008 µg/mL. The MIC in [13] is 4 µg/mL (≈ 10.3 µM); in [14], < 0.008 µg/mL.

Take `NCC1CN(c2nc3c(cc2F)c(=O)c(C(=O)O)cn3C2CC2)C/C1=N\Oc1ccccc1` (stereo not drawn): the minimal inhibitory concentration (MIC) in assay [1] is 0.016 µg/mL (≈ 0.0354 µM); in assay [2] it was 0.13 µg/mL (≈ 0.288 µM); in assay [3], 0.13 µg/mL (≈ 0.288 µM); in [4] it was 0.031 µg/mL (≈ 0.0687 µM); in assay [5], < 0.008 µg/mL; in assay [6], 0.031 µg/mL (≈ 0.0687 µM). In addition, the minimal inhibitory concentration (MIC) is 0.016 µg/mL (≈ 0.0354 µM) in assay [7]; 0.13 µg/mL (≈ 0.288 µM) in assay [8]; 0.016 µg/mL (≈ 0.0354 µM) in [9]; 2 µg/mL (≈ 4.43 µM) in [10]; 16 µg/mL (≈ 35.4 µM) in assay [11]; < 0.008 µg/mL in [12]. Further, the values for the minimum inhibitory concentration (MIC) in assay [13] and in assay [14] were < 0.008 µg/mL and 0.016 µg/mL (≈ 0.0354 µM), respectively.

Consider `CO/N=C1\CN(c2nc3c(cc2F)c(=O)c(C(=O)O)cn3-c2ccc(F)cc2F)CC1CN` (stereo not drawn), for which the MIC worked out at 0.031 µg/mL (≈ 0.0672 µM) in [1]; 0.13 µg/mL (≈ 0.282 µM) in [2]; 0.25 µg/mL (≈ 0.542 µM) in [3]; 0.063 µg/mL (≈ 0.137 µM) in assay [4]; 0.016 µg/mL (≈ 0.0347 µM) in assay [5]; 0.063 µg/mL (≈ 0.137 µM) in assay [6]. In addition, the minimal inhibitory concentration (MIC) in assay [7] was 0.031 µg/mL (≈ 0.0672 µM); in assay [8], 0.25 µg/mL (≈ 0.542 µM); in [9] it was 0.13 µg/mL (≈ 0.282 µM); in assay [10], 0.5 µg/mL (≈ 1.08 µM); in assay [11], 8 µg/mL (≈ 17.3 µM); in assay [12], 0.016 µg/mL (≈ 0.0347 µM). The MIC came out at 8 µg/mL (≈ 17.3 µM) in assay [13] and 0.008 µg/mL (≈ 0.0173 µM) in assay [14].

In the case of `CO/N=C1\CN(c2nc3c(cc2F)c(=O)c(C(=O)O)cn3C2CC2)CC1CN(C)C` (stereo not drawn), the minimal inhibitory concentration (MIC) in [1] is 0.13 µg/mL (≈ 0.311 µM); in [2] it was 1 µg/mL (≈ 2.4 µM); in assay [3] it was 0.016 µg/mL (≈ 0.0383 µM); in assay [4], 0.13 µg/mL (≈ 0.311 µM); in assay [5], 0.13 µg/mL (≈ 0.311 µM); in [6], 0.13 µg/mL (≈ 0.311 µM). Besides, the MIC was 0.13 µg/mL (≈ 0.311 µM) in assay [7]; 1 µg/mL (≈ 2.4 µM) in [8]; 0.5 µg/mL (≈ 1.2 µM) in assay [9]; 16 µg/mL (≈ 38.3 µM) in assay [10]; 16 µg/mL (≈ 38.3 µM) in assay [11]; 0.016 µg/mL (≈ 0.0383 µM) in assay [12]. In addition, the minimum inhibitory concentration (MIC) was found to be 32 µg/mL (≈ 76.7 µM) in assay [13] and 0.063 µg/mL (≈ 0.151 µM) in [14].

Consider `CO/N=C1\CN(c2c(F)cc3c(=O)c(C(=O)O)cn(C4CC4)c3c2Cl)CC1CN` (stereo not drawn), for which the MIC in assay [1] came to 0.016 µg/mL (≈ 0.0378 µM); in assay [2], 0.13 µg/mL (≈ 0.307 µM); in assay [3], 0.25 µg/mL (≈ 0.591 µM); in assay [4], 0.063 µg/mL (≈ 0.149 µM); in [5] it was 0.031 µg/mL (≈ 0.0733 µM); in [6], 0.031 µg/mL (≈ 0.0733 µM). In addition, the MIC stood at 0.031 µg/mL (≈ 0.0733 µM) in [7]; 0.25 µg/mL (≈ 0.591 µM) in assay [8]; 1 µg/mL (≈ 2.36 µM) in assay [10]; 1 µg/mL (≈ 2.36 µM) in [11]; 0.016 µg/mL (≈ 0.0378 µM) in assay [12]; 1 µg/mL (≈ 2.36 µM) in assay [13]. Besides, the values for the minimal inhibitory concentration (MIC) in [14] and in assay [15] were 0.016 µg/mL (≈ 0.0378 µM) and 0.25 µg/mL (≈ 0.591 µM), respectively.
